Patent US20050197338A1, “Substituted pyrazole urea compounds for the treatment of inflammation” (priority 2003, published 2005)

molecular target: T1, human IKK-2 (rhIKK-2 homodimer) (Homo sapiens, UniProt O14920); test: IKK-2 Resin Enzyme Assay (Human IKK-2 Enzyme Assay); assay type: biochemical; conditions: human IKK-2, resin enzyme assay; read-out: IC50 (μM) hIKK-2
T1 construct: FLAG (DYKDDDDKD) (C); made in house; host or cells: insect cells (baculovirus, pFastBac)
T1 sequence (O14920 1-756): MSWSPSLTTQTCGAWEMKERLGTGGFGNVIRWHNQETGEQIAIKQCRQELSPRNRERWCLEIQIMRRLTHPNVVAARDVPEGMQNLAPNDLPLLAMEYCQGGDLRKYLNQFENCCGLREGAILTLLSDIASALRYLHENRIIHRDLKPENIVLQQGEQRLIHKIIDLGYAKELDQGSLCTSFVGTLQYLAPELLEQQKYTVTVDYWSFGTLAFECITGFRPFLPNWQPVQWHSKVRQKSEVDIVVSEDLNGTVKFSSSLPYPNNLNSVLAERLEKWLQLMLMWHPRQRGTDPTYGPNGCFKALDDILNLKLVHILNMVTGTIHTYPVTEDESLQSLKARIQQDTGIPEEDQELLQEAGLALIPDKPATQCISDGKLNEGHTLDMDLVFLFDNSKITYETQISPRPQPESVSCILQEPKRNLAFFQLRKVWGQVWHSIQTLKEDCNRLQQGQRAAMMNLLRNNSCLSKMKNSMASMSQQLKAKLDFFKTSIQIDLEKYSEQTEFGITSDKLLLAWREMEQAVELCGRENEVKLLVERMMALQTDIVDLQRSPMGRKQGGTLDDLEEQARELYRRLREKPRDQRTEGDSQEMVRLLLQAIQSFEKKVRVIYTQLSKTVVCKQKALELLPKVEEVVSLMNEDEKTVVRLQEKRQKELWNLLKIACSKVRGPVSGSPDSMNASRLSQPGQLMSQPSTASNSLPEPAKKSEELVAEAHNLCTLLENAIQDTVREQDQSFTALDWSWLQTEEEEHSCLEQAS
In short: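 C-terminally FLAG-tagged human IKK-2 homodimer, baculovirus-expressed in insect cells and anti-FLAG purified. Reaction mix: 5 μM biotinylated IκBα peptide (Ser32/Ser36 region), 1 μM ATP with [γ-33P]ATP, 2 mM MgCl2, 2 mM MnCl2, 10 mM NaF, 1 mM DTT, 25 mM HEPES pH 7.6. Incubated 30 min at 25 °C; IC50 derived.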

| SMILES | IC50 [µM] |
| --- | --- |
| NC(=O)Nc1cn(-c2cccc(-c3cccc(-c4ccccc4)c3)c2)nc1C(N)=O [Example 372] | > 20 |
| NCc1cccc(-c2ccc(-n3cc(NC(N)=O)c(C(N)=O)n3)cc2)c1 [Example 28, 4-[(aminocarbonyl)amino]-1-[3′-(aminomethyl)-1,1′-biphenyl-4-yl]-1H-pyrazole-3-carboxamide] | 2.79 |
| COC(=O)c1cccc(-n2cc(NC(N)=O)c(C(N)=O)n2)c1 [Example 185, methyl 3-{3-(aminocarbonyl)-4-[(aminocarbonyl)amino]-1H-pyrazol-1-yl}benzoate] | 5.88 |
| Cc1cc(S(=O)(=O)c2ccc(F)cc2)ccc1-n1cc(NC(N)=O)c(C(N)=O)n1 [Example 229, 4-[(aminocarbonyl)amino]-1-{4-[(4-fluorophenyl)sulfonyl]-2-methylphenyl}-1H-pyrazole-3-carboxamide] | 2.19 |
| NC(=O)Nc1cn(-c2ccc(Sc3ccccc3F)cc2)nc1C(N)=O [Example 190, 1-(1-(4-(2-fluorophenylthio)phenyl)-3-carbamoyl-1H-pyrazol-4-yl)urea] | 0.831 |
| Cc1cc(-n2cc(NC(N)=O)c(C(N)=O)n2)ccc1-c1cccc(OCC#N)c1 [Example 243, 1-(3′-Cyanomethoxy-2-methyl-biphenyl-4-yl)-4-ureido-1H-pyrazole-3-carboxylic acid amide] | 8.11 |
| NC(=O)Nc1cn(-c2ccc(S(=O)(=O)c3cccc(F)c3)cc2)nc1C(N)=O [Example 203, 1-(1-(4-(3-fluorophenylsulfonyl)phenyl)-3-carbamoyl-1H-pyrazol-4-yl)urea] | 0.153 |
| NC(=O)Nc1cn(-c2ccc(-c3cc(F)ccc3OCC(=O)N3CCOCC3)cc2)nc1C(N)=O [Example 161, 4-[(aminocarbonyl)amino]-1-[5′-fluoro-2′-(2-morpholin-4-yl-2-oxoethoxy)-1,1′-biphenyl-4-yl]-1H-pyrazole-3-carboxamide] | 1.36 |
| COc1cccc(-c2ccc(-n3cc(NC(N)=O)c(C(N)=O)n3)cc2)c1 [Example 107, 4-[(aminocarbonyl)amino]-1-(3′-methoxy-1,1′-biphenyl-4-yl)-1H-pyrazole-3-carboxamide] | 0.651 |
| CC(C)NC(=O)c1cccc(-c2ccc(-n3cc(NC(N)=O)c(C(N)=O)n3)cc2)c1 [Example 148, 4-[(aminocarbonyl)amino]-1-{3′-[(isopropylamino)carbonyl]-1,1′-biphenyl-4-yl}-1H-pyrazole-3-carboxamide] | 7.14 |
| NC(=O)Nc1cn(-c2ccc(Sc3ccc(F)cc3)c(Cl)c2)nc1C(N)=O [Example 221, 4-[(aminocarbonyl)amino]-1-{3-chloro-4-[(4-fluorophenyl)thio]phenyl}-1H-pyrazole-3-carboxamide] | 2.6 |
| NC(=O)Nc1cn(-c2cccc(-c3cn[nH]c3)c2)nc1C(N)=O [Example 57, 4-[(aminocarbonyl)amino]-1-[3-(1H-pyrazol-4-yl)phenyl]-1H-pyrazole-3-carboxamide] | 0.29 |
| Cc1cc(-n2cc(NC(N)=O)c(C(N)=O)n2)ccc1-c1cc(F)ccc1O [Example 242, 1-(5′-Fluoro-2′-hydroxy-2-methyl-biphenyl-4-yl)-4-ureido-1H-pyrazole-3-carboxylic acid amide] | 1.35 |
| NC(=O)Nc1cn(-c2cccc(-c3ccncc3)c2)nc1C(N)=O [Example 45, 4-[(aminocarbonyl)amino]-1-(3-pyridin-4-ylphenyl)-1H-pyrazole-3-carboxamide] | 0.31 |
| CN(C)C(=O)COc1cccc(-c2ccc(-n3cc(NC(N)=O)c(C(N)=O)n3)cc2)c1 [Example 181, 4-[(aminocarbonyl)amino]-1-{3′-[2-(dimethylamino)-2-oxoethoxy]-1,1′-biphenyl-4-yl}-1H-pyrazole-3-carboxamide] | 0.105 |
| NC(=O)Nc1cn(-c2cccc(-c3ccc(C(=O)O)cc3)c2)nc1C(N)=O [Example 58, 3′-{3-(aminocarbonyl)-4-[(aminocarbonyl)amino]-1H-pyrazol-1-yl}-1,1′-biphenyl-4-carboxylic acid] | 2.81 |
